According to article PMC10803328 (Scientific Reports, 2024):
Values joined by “and” are separate entries in the source; they are usually repeats but may differ in a detail not shown here. Identical values can stand only once. “Also recorded” adds a separate entry of the source.

Columns and labels:
PSAM^4-GlyR [1] = molecular target: PSAM^4-GlyR (Homo sapiens, UniProt P23415+P36544, L131G/Q139L/Y217F); design: expressed in transfected cells; method as in PMID 30872534, PMID 24556591, PMID 36279419; conditions: read-out: PSAM^4-GlyR (Ki); in vitro binding assay, literature; cited from earlier work
Sequence of PSAM^4-GlyR (Homo sapiens, UniProt P23415+P36544, L131G/Q139L/Y217F) (P36544+P23415 fused P36544:L131G/P36544:Q139L/P36544:Y217F): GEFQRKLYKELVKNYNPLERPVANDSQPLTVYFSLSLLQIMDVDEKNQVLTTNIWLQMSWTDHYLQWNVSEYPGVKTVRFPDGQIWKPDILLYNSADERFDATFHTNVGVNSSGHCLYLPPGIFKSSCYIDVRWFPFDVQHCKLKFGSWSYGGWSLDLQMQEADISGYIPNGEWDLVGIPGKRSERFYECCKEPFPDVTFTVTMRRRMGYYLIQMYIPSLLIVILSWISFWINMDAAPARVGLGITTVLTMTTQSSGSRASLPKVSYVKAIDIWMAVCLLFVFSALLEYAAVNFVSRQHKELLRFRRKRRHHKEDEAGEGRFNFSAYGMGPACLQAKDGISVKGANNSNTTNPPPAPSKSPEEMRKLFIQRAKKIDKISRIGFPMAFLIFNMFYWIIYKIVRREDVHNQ

[2] = Lipophilicity measurement (logD7.4) by partition; type: physicochemical; conditions: n = 6
Method: Aliquots were distributed to 16 borosilicate disposable culture tubes (13 × 100 mm). The tubes were divided into two groups of […]. […] Extraction was performed by vortexing the tubes with their content for 1 min. The tubes were then centrifuged for 1 min. The organic and the aqueous phases were separated, and each phase was then sampled (50 µL) and counted separately in a well-type γ-counter (model 1480 Wizard; Perkin-Elmer) with an electronic window set between 360 and 1800 keV. The remaining two tubes, containing the radioactivity in buffer, served as stability measures for the radioligand. […] The aqueous phases were injected onto the HPLC. The resulting radiochromatograms provided correction factors for the γ-counter counts, of the aqueous samples, to determine parent radioligand radioactivity only (corrected radioactivity)[32]. LogD7.4octanol and logD7.4cyclohexane were each calculated as log((cpm in organic phase)/(corrected cpm in aqueous phase)).

[3] = PET imaging of brain in wild-type rats; type: in vivo, rat; conditions: i.v.
Method: (§1) All PET imaging studies were performed with a Mediso LFER 150 preclinical scanner (nanoScan PET/CT). Brain and brain region radioactivity uptake was expressed by standardized uptake value (SUV) which normalizes for injected radioactivity and monkey body weight, as follows: SUV = [(% injected dose per g tissue) × body weight in g]/100.
Animals were maintained under anesthesia with 1.5% isoflurane throughout the scan. Radioligand was injected intravenously via a penile vein catheter followed by PET imaging for 90 min. Brain uptake was expressed as standardized uptake value (SUV, concentration normalized by injected activity and body weight) and compared between the wild-type and self-blocked conditions.

[4] = Plasma free fraction by ultrafiltration, rat plasma; type: in vitro ADME; conditions: fresh rat plasma, read-out: rat plasma free fraction (fP)
Method: (§2) In vitro stability was calculated by dividing the relative composition of the blood or brain homogenate determined with radio-HPLC by the initial radiochemical purity of the radioligand. […] The mixture was incubated at room temperature for 10 min and then processed exactly as described previously. The ultrafiltration components that contained high radioactivity were allowed time for radioactivity decay to within the optimal range of the γ-counter before they were counted again.

[5] = system: efflux transporters (P-gp and BCRP); assay: PET imaging in wild-type and dual efflux transporter knockout mice; type: in vivo, mouse
Method: as §1
Radioligand was injected intravenously via a tail vein catheter followed by PET imaging for 90 min. Whole brain uptake in SUV was compared between wild type and knockout mice.

[6] = Plasma free fraction, monkey plasma; type: in vitro ADME, rhesus monkey; conditions: baseline
Method: as §2

[7] = Plasma free fraction by ultrafiltration, pooled human standard plasma; type: in vitro ADME
Method: as §2

PSAM^4-GlyR [8] = assay: PET imaging and arterial plasma radiometabolite analysis in monkey transduced with PSAM^4-GlyR in the left amygdala; type: in vivo, rhesus monkey
Method: All studies were conducted in accordance with “Animal Research: Reporting of In Vivo Experiments” guidelines as well as Guidelines for the Care and Use of Laboratory Animals, 8th Edition, and were approved by the National Institute of Mental Health Animal Care and Use Committee. A lentivirus carrying an PSAM^4 expressed under a human synapsin promoter (Lenti-hSyn-PSAM^4-GlyR) was injected into the left amygdala of a single rhesus macaque (11-year-old male). 14 × 20 μL of virus was injected at 1.0 μL/min speed. The virus titer was measured at 1 × 10^9 i.u./mL. The surgery was performed under aseptic conditions in a fully equipped operating suite.
as §1
(§3) Two male rhesus monkeys (macaca mulatta; 10.0 and 8.6 kg) underwent PET scanning. Each monkey was initially immobilized with ketamine (10 mg/kg, i.m.) and then maintained under anesthesia with 1.5% isoflurane. For each monkey, a baseline scan was performed for 120 min. […] Electrocardiogram, body temperature, heart, and respiration rates were monitored throughout the scans.
(§4) Total radioactivity concentrations in sampled arterial whole blood and plasma were measured in a γ-counter throughout the 90-min scanning period.
(§5) PET images were reconstructed using Fourier rebinding plus two-dimensional filtered back-projection with attenuation and scatter correction. Images were co-registered to a standardized monkey MRI template using the FMRIB Software Library (FSL; Oxford, UK). Thirty-four predefined brain regions of interest from the template were applied to the co-registered PET image to obtain regional, decay-corrected, time-activity curves.

[9] = PET imaging and arterial plasma radiometabolite analysis in non-transduced healthy monkey; type: in vivo, rhesus monkey
Method: as §1, §3, §4, §5

[10] = non-transduced healthy monkey, i.v., PET

Q: Which Ki (PSAM^4-GlyR [1]) does the source give for `[11CH3]n1c(=O)cnc2cc3c(cc21)C1CNCC3C1` (stereo not drawn) [[^11C]uPSEM792] here?
A: The Ki was 0.7 nM.

Q: And the “ΔLogD7.4 (logD7.4(octanol) − logD7.4(cyclohexane))” value [2]?
A: The value was 2.45 ± 0.03.

Q: And the “peak whole brain radioactivity uptake” value [3]?
A: The value was ~ 0.6 SUV and < 0.6 SUV.

Q: And the “time of peak whole brain radioactivity” value [3]?
A: Its value is 5 min.

Q: What about the fraction unbound at 10 min, 2.6 MBq/mL [4] of the same molecule?
A: Its fraction unbound at 10 min, 2.6 MBq/mL is 0.898.

Q: What about the “substrate for efflux transporters in vivo” value ([5]; dual P-gp and BCRP knockout vs wild-type mice) of the same molecule?
A: The value was “substrate for efflux transporters in vivo”.

Q: And the “early peak brain radioactivity uptake” value ([5]; dual efflux transporter (P-gp and BCRP) knockout mice, i.v.)?
A: The value was ~ 0.7 SUV.

Q: And the “fP (%)” value ([6]; PSAM^4-GlyR monkey)?
A: The value was 89.42%.

Q: What about the “fP (%)” value ([6]; non-transduced healthy monkey) of the same molecule?
A: Its value is 89.29%.

Q: And the fraction unbound at 10 min, 2.6 MBq/mL [7]?
A: Its fraction unbound at 10 min, 2.6 MBq/mL is 0.876.

Q: What about the “difference in uptake of radioactivity between left (PSAM^4-GlyR) and right amygdala” value (PSAM^4-GlyR [8]; PSAM^4-GlyR monkey, PET) of the same molecule?
A: Its value is “No significant difference”.

Q: What about the “evidence of PSAM^4-GlyR specific binding in left amygdala” value (PSAM^4-GlyR [8]; PSAM^4-GlyR monkey, PET, compartmental modeling) of the same molecule?
A: Its value is “do not reveal any evidence of specific binding; also recorded: no evidence was obtained for PSAM^4-GlyR specific binding”.

Q: And the “time at which radiometabolites accounted for 50% of radioactivity in plasma” value (PSAM^4-GlyR [8]; male, rhesus monkey, in vivo)?
A: Its value is 30 min.

Q: And the “peak whole brain radioactivity uptake” value (PSAM^4-GlyR [8]; monkey transduced in the left amygdala with PSAM^4-GlyR, i.v., PET)?
A: The value was ~ 0.8 SUV.

Q: And the “time at which radiometabolites represented half of the radioactivity in plasma” value ([9]; male, rhesus monkey, in vivo)?
A: The value was 78 min.

Q: What about the “unchanged radioligand peak in plasma radiochromatogram” value ([9]; male, rhesus monkey, in vivo, 120 min) of the same molecule?
A: Its value is 29%.

Q: And the “peak of whole brain time-activity curve” value [9, 10]?
A: The value was 0.8 SUV and ~ 0.8 SUV.

Q: What about the “plateau of whole brain time-activity curve” value [9, 10] of the same molecule?
A: The value was “about 0.65 SUV”.
